Test results reported in US6500431B1, “Inhibitors of angiogenesis and tumor growth” (University of Southern California, priority 1998, dated 2002).
No end group written: not given here.

Experiments:
Assay type in all cases: cell-based
[1] = tested on: KS Y-1 cells; test: KS Y-1 cell proliferation assay (MTT); settings: for KS Cell Proliferation, % of Control: 7,500 KS Y-1 cells/well; for KS Cell Proliferation, % of Control / Cell Proliferation Activity (% of control), KSY-1: 5 days, MTT; for Cell Proliferation Activity (% of control), KSY-1: concentration not printed
Protocol: (§1) To determine if Saposin B polypeptides had anti-angiogenic activity, a series of overlapping polypeptides were synthesized and tested in the KS Y-1 cell proliferation assay. The overlapping polypeptides are SEQ ID NOS:13 though 42. Cell Proliferation assays in either KS cells or fibroblast. Cells were plated in 48 well plates at equal numbers in appropriate culture medium. Cells were treated with the test compounds at various concentrations on day one, and on day 3. MTT was done on day 5. KS cells were used to represent the activated endothelial cells, while fibroblast cells represent the control cells. The results are remarkable for the lack of toxicity to the fibroblast relative to the activated endothelial cells/KS cells.

[2] = tested on: T1 cells; test: Fibroblast proliferation assay (MTT); settings: for Fibroblast Proliferation, % of Control: 5000 T1 cells/well, 7 days; for Cell Proliferation Activity (% of control), T1: concentration not given, 5 days
Protocol: as §1, with “MTT was done on day 5.” left out

[3] = tested on: endothelial cells (HUVEC); test: Growth inhibition of endothelial cells; settings: FIG. 1, 1D, 1E
Protocol: FIG. 1D: Activity of n-terminus decapeptide (DVCQDCIQMV; SEQ ID NO 21).
FIG. 1E: Activity of N-terminus pentapeptide (DVCQC; SEQ ID NO: 28).
By SDS-PAGE, the bacterial product was smaller than the eukaryotic protein. Because prokaryotically expressed proteins are not glycosylated, the difference in molecular weights probably represents the presence of carbohydrate in the eukaryotic protein. Recombinant proteins were then tested in KS, endothelial and control cell lines. Activity was found only in KS cell lines and endothelial cells.

[4] = first of two KSY-1 value columns
[5] = second of two KSY-1 value columns

Substance | KS Cell Proliferation, % of Control ([1]; 1 μg/mL) | KS Cell Proliferation, % of Control ([1]; 5 μg/mL) | KS Cell Proliferation, % of Control ([1]; 10 μg/ml) | KS Cell Proliferation, % of Control ([1]; 50 μg/mL) | Cell Proliferation Activity (% of control), KSY-1 [1, 4] | Cell Proliferation Activity (% of control), KSY-1 [1, 5] | Fibroblast Proliferation, % of Control ([2]; 1 μg/mL) | Fibroblast Proliferation, % of Control ([2]; 10 μg/mL) | Fibroblast Proliferation, % of Control ([2]; 50 μg/mL) | KS Cell Proliferation, % of Control ([1]; 100 μg/mL) | KS Cell Proliferation, % of Control ([1]; 500 μg/mL) | Cell Proliferation Activity (% of control), T1 [2] | Cell Proliferation Activity (% of control), T1 ([2]; first of two T1 value columns) | growth inhibition of endothelial cells [3] | IC50 [1] [µM]
GDVSQDSIQMV [SEQ ID NO:20] | 100.0 % of Control | 96.4 % of Control | 92.9 % of Control | 82.1 % of Control | 93 % of control | 84 % of control | 91.3 % of Control | 95.7 % of Control | 95.7 % of Control | – | – | – | – | – | –
QPKDNGDVCQDCIQV [SEQ ID NO:13] | 51.8 % of Control | – | 17.9 % of Control | 1.8 % of Control | – | – | – | – | – | 1.8 % of Control | 1.8 % of Control | – | – | – | –
DVCQDC [SEQ ID NO:27] | – | – | – | – | 60 % of control | 22 % of control | – | – | – | – | – | 75 % of control | 88 % of control | – | –
DVCQDCIQMV [SEQ ID NO:21] | 88.7 % of Control | 68.7 % of Control | 26.1 % of Control | 7.0 % of Control | 29 % of control | – | 100.0 % of Control | 91.3 % of Control | 87.0 % of Control | – | – | – | – | Only endothelial cells show dose dependent growth inhibition | –
GDVCQ [SEQ ID NO:22] | 158.3 % of Control | 77.4 % of Control | 59.1 % of Control | 37.4 % of Control | 59 % of control | 28 % of control | 95.7 % of Control | 95.7 % of Control | 87.0 % of Control | – | – | – | – | – | –
DVCQDCIQ [SEQ ID NO:25] | – | – | – | – | 72 % of control | 39 % of control | – | – | – | – | – | 89 % of control | 98 % of control | – | –
QDCIQMV [SEQ ID NO:31, QDCIQMV] | – | – | – | – | 74 % of control | – | – | – | – | – | – | 80 % of control | 87 % of control | – | 16.6
DVCQDCI [SEQ ID NO:26] | – | – | – | – | 72 % of control | 40 % of control | – | – | – | – | – | 81 % of control | 96 % of control | – | –
VCQDCIQMV [SEQ ID NO:29] | – | – | – | – | 65 % of control | 33 % of control | – | – | – | – | – | 86 % of control | 95 % of control | – | –
QMVTDIQTQVRTNSTF [SEQ ID NO:43, QMVTDIQTQVRTNSTF] | – | – | – | – | – | – | – | – | – | – | – | – | – | – | 14
DCIQMV [SEQ ID NO:23] | 88.7 % of Control | 83.5 % of Control | 68.7 % of Control | 51.3 % of Control | 68 % of control | 51 % of control | – | – | – | – | – | – | – | – | –
